Experimental data taken from patent US7465708B2, “Branched cationic copolymers and methods for antimicrobial use” (priority 2002, dated 2008).
Like-named read-outs stand apart in the source and are kept apart here. Positions of bridges follow the written chain, without caps; N, C: chain ends. Chains are numbered I, II in the order given. No end group written: not given here.

Experiments:
[1] = tested on: mice; assay: Acute in vivo toxicity after IV injection; conditions: for side effects of surviving mice (scale): one symbol per mouse; for in vivo toxicity (in words): administered intravenously; for histology of major organs: mice who died from polymers at higher dosages
Source text: One of the major limitations of cationic peptides is their potenitial toxicity when administered systemically. As a result, we tested the acute toxicity of these polymers after injecting them IV. […] Conversely, linear polymers that had minimal to moderate antibacterial properties had the greatest in vivo toxicity. […] Even if one arginine adjacent to the histidine residue replaces the amino terminal lysine in the HK polymer (e.g., HK-R), the polymer was still very toxic when administered intravenously. The in vivo toxicity of linear HK polymers from most to least is as follows: HR>HK-R>>HK. […] There were parallels between in vitro and in vivo toxicity studies (Tables 2 and 3). […] The data is consistent with linear polymers interacting and inhibiting ionic channels of the cardiovascular system (similar to neurotoxins). Intravenous injection of linear polymers with arginine or lysines adjacent (or near) to histidines should be avoided.

[2] = tested on: gram negative bacteria E. coli transformed with a kanamycin-resistant plasmid; assay: In vitro bacteria inhibition (MIC, turbidity O.D. 600 nm in LB broth); type: cell-based
Description: Bacteria; A gram negative bacteria E. coli transformed with a kanamycin-resistant plasmid was used in these experiments and grown in LB media (Biofluids, Rockville, Md.).
For in vitro studies, several polymers were tested for their ability to inhibit gram negative bacteria. […] The histidine and lysine ratio and their sequence order have an important role in the-polymers' effects. […] Since it is likely that H^3KN4b has the greatest ability to chelate key transitional elements, chelation of key elements in LB media, separate from the polymer's role of binding to the bacteria membrane, is unlikely to have a major role in the inhibition of bacteria. • 3) The sequence order of lysine and histidine in the branched polymer has a major role in the inhibition of bacteria. Altering these sequences affects the antibacterial activity of […]. Sufficient cationic amino acids are critical for binding whereas the exact function of histidine is unclear. Data supports that cationic amino acids need to be evenly distributed in branches, particularly at N-terminal ends. Too many cationic amino acids in the polymer, however, reduce antibacterial activity. • 4) Histidine may have a role in the interruption of iron transport systems and/or it may enhance the hydrophobic interactions of the polymer with the bacteria membrane.

[3] = tested on: MDA-MB-435 cells; assay: In vitro toxicity: reduction in cell number after incubation with polymers; type: cell-based
Source text: In vitro toxicity of these polymers was then examined on a malignant cell line (MDA-MB-435).

[4] = 50 μg/ml, 6 h incubation in DMEM/10% serum, counted 24 h later vs untreated cells
[5] = 150 μg/ml, 6 h incubation in DMEM/10% serum, counted 24 h later vs untreated cells
[6] = 100 μl/ml, 6 h incubation in DMEM/10% serum, counted 24 h later vs untreated cells

Substance | number of mice who survive treatment / number of mice in treatment group ([1]; 75 μg IV) | number of mice who survive treatment / number of mice in treatment group ([1]; 150 μg IV) | side effects of surviving mice (scale) ([1]; 150 μg IV) | number of mice who survive treatment / number of mice in treatment group ([1]; 300 μg IV) | number of mice who survive treatment / number of mice in treatment group ([1]; 600 μg IV) | histology of major organs [1] | other results
RHKHKHKHKGKHKHKHKHK [HK-R, [R-H-K-H-K-H-K-H-K-G-K-H-K-H-K-H-K-H-K]] | 2/2 | 2/2 | +, + | 0/2 | 0/2 | no evidence of pathology | in vivo toxicity (in words) [1]: very toxic
RHRHRHRHRGRHRHRHRHR [linear RH, [R-H-R-H-R-H-R-H-R-G-R-H-R-H-R-H-R-H-R]] | 2/2 | 2/2 | +++, + | 0/2 | 0/2 | no evidence of pathology | side effects of surviving mice (scale) ([1]; 75 μg IV): + (moderate reduction in activity in for less than 1 min); in vivo toxicity (in words) [1]: most toxic of the linear polymers
I: KHHHNHHHKHHHKHHHKKKK / II: KHHHNHHHKHHHKHHHK / III: KHHHNHHHKHHHKHHHK / IV: KHHHNHHHKHHHKHHHK (amide I:18-IV:C, I:19-III:C, I:20-II:C) [H^3KN4b, [K-H-H-H-N-H-H-H-K-H-H-H-K-H-H-H-K]4K3] |  |  |  |  |  |  | antimicrobial activity (in words) [2]: moderate antimicrobial activity
I: KHHHKHHHKHHHKHHHKKKK / II: KHHHKHHHKHHHKHHHK / III: KHHHKHHHKHHHKHHHK / IV: KHHHKHHHKHHHKHHHK (amide I:18-IV:C, I:19-III:C, I:20-II:C) [H^3K4b, [K-H-H-H-K-H-H-H-K-H-H-H-K-H-H-H-K]4K3] | 2/2 | 2/2 |  | 2/2 | 2/2 |  | toxicity after repeated dosing (in words) ([1]; three 600 μg dosages, each separated by 4 h): no evidence of toxicity; Reduction In Cell Number [3, 4]: 0%; Reduction In Cell Number [3, 5]: 0%; Reduction In Cell Number [3, 6]: 0%; in vitro toxicity (in words, measured by cell number) ([3]; MDA-MB-435 cells): no observed toxicity
KHKHKHKHKGKHKHKHKHK [linear HK, [K-H-K-H-K-H-K-H-K-G-K-H-K-H-K-H-K-H-K]] | 2/2 | 2/2 | ++, + | 2/2 | 0/2 | no evidence of pathology | side effects of surviving mice (scale) ([1]; 300 μg IV): +++, +++; Reduction In Cell Number [3]: 68%; in vitro toxicity (in words, measured by cell number) [3]: significantly more toxic
I: KHKHHKHHKHHKHHKHHKHKK / II: KHKHHKHHKHHKHHKHHKHK (amide I:21-II:C) [H^2K2b, [K-H-H-K-H-H-K-H-H-K-H-H-K-H-H-K-H-K]2K] |  |  |  |  |  |  | antimicrobial activity (in words) [2]: only moderate reduction on bacteria growth
I: KHKHHKHHKHHKHHKHHKHKKKK / II: KHKHHKHHKHHKHHKHHKHK / III: KHKHHKHHKHHKHHKHHKHK / IV: KHKHHKHHKHHKHHKHHKHK (amide I:21-IV:C, I:22-III:C, I:23-II:C) [H^2K4b, [KHKHHKHHKHHKHHKHHKHK]4K3] | 2/2 | 2/2 |  | 2/2 | 2/2 |  | Reduction In Cell Number [3, 4]: 5%; Reduction In Cell Number [3, 5]: 22%; Reduction In Cell Number [3, 6]: 12%
I: KHKHKHKHKGKHKHKHKHKKKK / II: KHKHKHKHKGKHKHKHKHK / III: KHKHKHKHKGKHKHKHKHK / IV: KHKHKHKHKGKHKHKHKHK (amide I:20-IV:C, I:21-III:C, I:22-II:C) [HK4b, [K-H-K-H-K-H-K-H-K-G-K-H-K-H-K-H-K-H-K]4K3] | 2/2 | 2/2 |  | 2/2 | 2/2 |  | 
